{"source": "ChEMBL document CHEMBL1124263", "about": "(J Med Chem, 1988)", "key": {"[1]": {"biological_target": "5-hydroxytryptamine receptor 1B (Rattus norvegicus, UniProt P28564)", "sequence (P28564 whole entry)": "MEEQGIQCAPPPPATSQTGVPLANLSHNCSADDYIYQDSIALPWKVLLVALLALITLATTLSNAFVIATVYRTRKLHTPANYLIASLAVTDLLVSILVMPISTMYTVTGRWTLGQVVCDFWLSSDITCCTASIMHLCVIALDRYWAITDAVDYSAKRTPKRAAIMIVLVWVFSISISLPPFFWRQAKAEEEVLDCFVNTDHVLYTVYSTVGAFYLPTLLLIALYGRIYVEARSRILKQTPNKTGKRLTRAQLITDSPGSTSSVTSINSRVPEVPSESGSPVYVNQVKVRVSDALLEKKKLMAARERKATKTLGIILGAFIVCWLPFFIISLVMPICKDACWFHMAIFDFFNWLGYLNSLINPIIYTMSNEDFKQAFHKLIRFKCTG", "test": "biochemical"}, "[2]": {"biological_target": "T1, Serotonin 2 (5-HT2) receptor (Rattus norvegicus, UniProt P30994+P08909+P14842)"}, "[3]": {"biological_target": "T1, Serotonin 2 (5-HT2) receptor", "test": "Ability to displace 0.75 nM [3H]ketanserin in 5-hydroxytryptamine 2 receptor from rat frontal cortex homogenate", "type": "tissue-based"}}}
{"smiles": "COc1ccc2[nH]cc(C[C@H](C)N)c2c1", "values": [{"measurement": "Ki", "setting": "[1]", "value": 0.417, "unit": "µM"}, {"measurement": "Log Ki", "setting": "[2]", "value": -6.15}]}
{"smiles": "COc1ccc2c(C[C@@H](C)N)c[nH]c2c1", "values": [{"measurement": "Ki", "setting": "[1]", "value": 2.14, "unit": "µM"}, {"measurement": "Ki", "setting": "[3]", "value": "> 10", "unit": "µM"}]}
{"smiles": "C[C@H](N)Cc1c[nH]c2cccc(O)c12", "values": [{"measurement": "Ki", "setting": "[1]", "value": 4.07, "unit": "µM"}, {"measurement": "Log Ki", "setting": "[2]", "value": -5.21}]}
{"smiles": "C[C@@H](N)Cc1c[nH]c2cccc(O)c12", "values": [{"measurement": "Ki", "setting": "[1]", "value": 1.55, "unit": "µM"}, {"measurement": "Log Ki", "setting": "[2]", "value": -5.46}]}
{"smiles": "COc1ccc2c(C[C@H](C)N)c[nH]c2c1", "values": [{"measurement": "Ki", "setting": "[1]", "value": 7.24, "unit": "µM"}, {"measurement": "Ki", "setting": "[3]", "value": "> 10", "unit": "µM"}]}
{"smiles": "COc1ccc2[nH]cc(C[C@@H](C)N)c2c1", "values": [{"measurement": "Ki", "setting": "[1]", "value": 0.38, "unit": "µM"}, {"measurement": "Log Ki", "setting": "[2]", "value": -5.89}]}
{"smiles": "COc1cccc2[nH]cc(C[C@@H](C)N)c12", "values": [{"measurement": "Ki", "setting": "[1]", "value": 0.776, "unit": "µM"}, {"measurement": "Log Ki", "setting": "[2]", "value": -5.84}]}
{"smiles": "COc1cccc2[nH]cc(C[C@H](C)N)c12", "values": [{"measurement": "Ki", "setting": "[1]", "value": 2.69, "unit": "µM"}, {"measurement": "Log Ki", "setting": "[2]", "value": -6.02}]}
